Test systems include UACC-62 melanoma; OVCAR-8 ovarian; SF-295 CNS; MDA-MB-231 breast; A549 NSCLC; U251 CNS; SR leukemia; UACC-257 melanoma; OVCAR-4 ovarian; T-47D breast.
What all share (assay): NCI anticancer screen, dose series, 48 h

Each structure is given as a SMILES string.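 Step 1: Grow cells in 96-well plates. Step 2: Expose to compound for 48 hours at 5 concentrations. Step 3: Interpolate endpoints linearly; if unreached, use highest concentration. At the GI50, growth is halved. Definition used: TGI = concentration required for complete inhibition of growth.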 Bounds are passed on as bounds.

On to `C/C(=N/NC(=S)Nc1cccc(Cl)c1)c1ccccn1`, for which the TGI came to 2.49 µM in the test with UACC-62 melanoma; 9.29 µM in the test on OVCAR-8 ovarian; 9.39 µM in the test on SF-295 CNS; 10.3 µM in the test with MDA-MB-231 breast; 10.1 µM with A549 NSCLC; 8.26 µM in the test with U251 CNS. For the same compound, the TGI in the test on SR leukemia came to 1.99 µM; with UACC-257 melanoma, 2.41 µM; in the test with OVCAR-4 ovarian, 16.9 µM; in the test on T-47D breast, 1.05 µM.
For the compound `C=CCNc1nc(O)c(/C=C2\C=Nc3ncccc32)s1`, the GI50 is 1.69 µM with UACC-62 melanoma; 3.41 µM with OVCAR-8 ovarian; 2.5 µM in the test with SF-295 CNS; 2.44 µM in the test on MDA-MB-231 breast; 7.08 µM with A549 NSCLC; 2.07 µM in the test with U251 CNS. Besides, the GI50 is 0.408 µM with SR leukemia, 9.12 µM with UACC-257 melanoma, 3.03 µM in the test with OVCAR-4 ovarian and 2.27 µM in the test with T-47D breast. Besides, the TGI in the test on UACC-62 melanoma is 4.22 µM; with OVCAR-8 ovarian, 10.3 µM; with SF-295 CNS, above 100 µM; in the test on MDA-MB-231 breast, 6.63 µM; in the test with A549 NSCLC, 19.4 µM; in the test with U251 CNS it was 4.35 µM. The TGI was determined as 88.3 µM in the test on SR leukemia, 21.2 µM in the test on UACC-257 melanoma, 24.9 µM in the test with OVCAR-4 ovarian and 7.38 µM with T-47D breast.
On to `CC(C(=O)NCCNC(=O)CCC(=O)N(C)O)C(=O)NCCNC(=O)CCC(=O)N(C)O`, for which the TGI in the test with UACC-62 melanoma, in the test with OVCAR-8 ovarian, in the test on SF-295 CNS, in the test on MDA-MB-231 breast, with A549 NSCLC and in the test with U251 CNS was above 100 µM throughout. For the same compound, the TGI with SR leukemia, in the test on UACC-257 melanoma, with OVCAR-4 ovarian and in the test with T-47D breast was above 100 µM each time.
